In PMC7221589, “Development of a Rapid Mass Spectrometric Determination of AMP and Cyclic AMP for PDE3 Activity Study: Application and Computational Analysis for Evaluating the Effect of a Novel 2-oxo-1,2-dihydropyridine-3-carbonitrile Derivative as PDE-3 Inhibitor” (Molecules, 2020):

Target: PDE3A (phosphodiesterase enzyme 3A) (Homo sapiens, UniProt Q14432)
Assay: MS/MS assay of cAMP hydrolysis to AMP by purchased PDE3A, dose-response
Assay type: biochemical

Chain of PDE3A (phosphodiesterase enzyme 3A) (Q14432 whole entry): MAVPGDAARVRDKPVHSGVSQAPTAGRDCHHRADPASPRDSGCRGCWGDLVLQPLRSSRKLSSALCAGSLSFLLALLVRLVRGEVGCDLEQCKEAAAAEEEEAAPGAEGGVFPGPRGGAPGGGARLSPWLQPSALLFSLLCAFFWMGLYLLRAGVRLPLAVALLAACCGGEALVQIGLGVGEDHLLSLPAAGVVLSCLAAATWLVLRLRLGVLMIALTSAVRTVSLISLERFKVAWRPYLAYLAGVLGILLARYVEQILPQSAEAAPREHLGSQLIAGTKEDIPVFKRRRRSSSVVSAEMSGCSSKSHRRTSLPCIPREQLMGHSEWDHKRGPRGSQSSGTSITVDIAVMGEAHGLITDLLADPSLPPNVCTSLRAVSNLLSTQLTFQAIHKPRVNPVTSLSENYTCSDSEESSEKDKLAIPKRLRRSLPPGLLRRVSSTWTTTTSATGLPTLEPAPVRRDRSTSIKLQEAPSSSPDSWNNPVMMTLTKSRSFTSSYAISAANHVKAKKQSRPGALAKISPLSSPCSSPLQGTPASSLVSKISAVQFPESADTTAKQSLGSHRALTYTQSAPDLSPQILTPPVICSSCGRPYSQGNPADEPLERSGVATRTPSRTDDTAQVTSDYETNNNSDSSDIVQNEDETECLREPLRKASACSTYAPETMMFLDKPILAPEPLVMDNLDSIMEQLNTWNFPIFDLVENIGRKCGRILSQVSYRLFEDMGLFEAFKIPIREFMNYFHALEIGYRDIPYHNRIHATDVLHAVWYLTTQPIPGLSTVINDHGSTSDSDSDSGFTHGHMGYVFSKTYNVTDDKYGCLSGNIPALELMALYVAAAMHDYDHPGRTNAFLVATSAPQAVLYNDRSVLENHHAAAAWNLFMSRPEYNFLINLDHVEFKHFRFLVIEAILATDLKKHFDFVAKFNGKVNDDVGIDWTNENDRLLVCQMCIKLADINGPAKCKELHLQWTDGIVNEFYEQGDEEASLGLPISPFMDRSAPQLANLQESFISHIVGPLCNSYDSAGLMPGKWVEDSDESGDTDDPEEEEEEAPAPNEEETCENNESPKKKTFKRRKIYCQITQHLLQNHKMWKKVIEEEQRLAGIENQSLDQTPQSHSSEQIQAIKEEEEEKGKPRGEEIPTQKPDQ

IC50: 410 nM
SMILES: CCOC(=O)N1CCC(NC(=O)c2cc(C#N)c(=O)[nH]c2C)CC1 [DF492]
